Test results from patent publication US8513271B2, “Pyrimidine compounds as delta opioid receptor modulators” (Janssen Pharmaceutica, NV, priority 2009, dated 2013).
Several values for one entry are separate records, joined by “and”; a condition that tells them apart may be missing. Equal values may be shown once. Read-outs that look alike come from different tables or passages of the source.

Legend:
delta opioid receptor [1] = target: T1, delta opioid receptor (Rattus norvegicus, UniProt P33533); assay: Rat brain delta opioid receptor binding assay; conditions: rat forebrain
T1 construct: the forebrains were homogenized in Tris buffer in a Teflon®-glass homogenizer; from tissue; host or cells: forebrain of male Wistar rats, particulate (membrane) preparation
T1 sequence (P33533 whole entry): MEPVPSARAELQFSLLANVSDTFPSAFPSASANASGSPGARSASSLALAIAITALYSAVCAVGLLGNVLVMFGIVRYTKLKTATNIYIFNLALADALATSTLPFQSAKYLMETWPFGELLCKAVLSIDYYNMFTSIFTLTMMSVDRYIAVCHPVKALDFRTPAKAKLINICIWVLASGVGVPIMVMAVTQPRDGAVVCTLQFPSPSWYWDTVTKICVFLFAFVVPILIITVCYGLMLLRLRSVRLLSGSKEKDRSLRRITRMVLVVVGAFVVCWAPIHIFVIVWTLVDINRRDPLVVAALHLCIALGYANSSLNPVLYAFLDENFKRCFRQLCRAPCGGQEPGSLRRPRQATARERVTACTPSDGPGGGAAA

mu opioid receptor = target: T2, mu opioid receptor (Rattus norvegicus, UniProt P33535); assay: Rat brain mu opioid receptor binding assay; conditions: rat forebrain, [3H]DAMGO ligand
T2 construct: the forebrains were homogenized in Tris buffer in a Teflon®-glass homogenizer; from tissue; host or cells: forebrain of male Wistar rats, particulate (membrane) preparation
T2 sequence (P33535 whole entry): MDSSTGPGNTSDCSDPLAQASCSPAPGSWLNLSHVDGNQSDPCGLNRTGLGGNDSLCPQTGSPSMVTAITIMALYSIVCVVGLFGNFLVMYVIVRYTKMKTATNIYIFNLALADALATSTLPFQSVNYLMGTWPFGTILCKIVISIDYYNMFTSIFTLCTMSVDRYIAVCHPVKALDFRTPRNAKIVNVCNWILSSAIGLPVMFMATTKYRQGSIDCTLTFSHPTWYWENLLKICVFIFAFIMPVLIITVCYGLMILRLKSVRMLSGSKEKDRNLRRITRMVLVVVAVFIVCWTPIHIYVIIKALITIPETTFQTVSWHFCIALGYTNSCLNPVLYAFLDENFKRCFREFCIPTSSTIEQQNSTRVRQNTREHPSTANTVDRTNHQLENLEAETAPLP

delta opioid receptor [2] = target: T3, delta opioid receptor (Mus musculus, UniProt P32300); assay: [35S]GTPγS binding assay in NG108-15 cell membranes (delta opioid functional assay), 200 nM screen; assay type: biochemical; conditions: for EC50 / GTPγS δ-opioid receptor Rel Efficacy: NG108-15 cell membranes; for EC50: averages if tested more than once; for inhibition at 10 µM: read-out: GTPγS δ-opioid receptor % Inh @10 μM; for GTPγS δ-opioid receptor Rel Efficacy: relative efficacy from dose response
T3 construct: NG108-15 cell membranes were purchased from Applied Cell Sciences (Rockville, Md.); host or cells: NG108-15 cell membranes
T3 sequence (P32300 whole entry): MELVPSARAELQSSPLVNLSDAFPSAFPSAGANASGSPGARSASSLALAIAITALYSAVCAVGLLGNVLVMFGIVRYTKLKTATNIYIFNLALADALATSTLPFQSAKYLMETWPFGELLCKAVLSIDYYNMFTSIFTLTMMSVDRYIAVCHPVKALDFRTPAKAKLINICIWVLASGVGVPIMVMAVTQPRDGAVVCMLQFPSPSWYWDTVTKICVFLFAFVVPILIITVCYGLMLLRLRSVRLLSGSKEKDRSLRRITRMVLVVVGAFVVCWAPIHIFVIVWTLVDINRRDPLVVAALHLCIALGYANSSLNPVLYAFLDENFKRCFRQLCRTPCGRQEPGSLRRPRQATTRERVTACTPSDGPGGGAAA

[3] = δ-binding (Naltrindole ligand) Ki, [3H]naltrindole ligand
[4] = GTPγS δ-opioid receptor EC50 (μM)
[5] = [3H]naltrindole ligand, read-out: δ-binding (Naltrindole ligand) Ki
[6] = read-out: GTPγS δ-opioid receptor EC50

| Ki (delta opioid receptor [1]; [5]) [µM] | SMILES | Ki (delta opioid receptor [1]; δ-binding (DPDPE ligand) Ki, [3H]DPDPE ligand) [µM] | Ki (delta opioid receptor [1]; [3]) [µM] | Ki (mu opioid receptor; μ-binding Ki) | EC50 (delta opioid receptor [2]; [4]) | inhibition at 10 µM (delta opioid receptor [2]) [%] | GTPγS δ-opioid receptor Rel Efficacy (delta opioid receptor [2]) | Ki (mu opioid receptor; read-out: μ-binding Ki) [µM] | EC50 (delta opioid receptor [2]; [6]) [µM] |
| --- | --- | --- | --- | --- | --- | --- | --- | --- | --- |
|  | COc1ccc(Oc2nc(-c3ccccc3)ncc2NC[C@@H]2CCCN2)cc1 [Cpd 2] | 0.02 | 0.033 | 3.14 µM and 3.39 µM | 0.43 µM and 0.069 µM | 5.79 | 0.733 |  |  |
| 0.013 | COc1ccc(Oc2nc(-c3ccncc3)ncc2NC[C@@H]2CCCN2)cc1 [Cpd 7] |  |  |  |  | 17.1 | 0.912 | 2.17 | 0.436 |
|  | COc1ccc(Oc2nc(-c3ccc(F)c(F)c3)ncc2NC[C@@H]2CCCN2)cc1 [Cpd 56] |  | 0.015 |  |  | 26.3 |  | 1.94 | 0.536 |
|  | COc1ccc(Oc2nc(-c3cnc(OC)nc3OC)ncc2NC[C@@H]2CCCN2)cc1 [Cpd 58] |  | 0.004 |  |  | 12.8 |  | 0.64 | 1.51 |
|  | CCOc1ncc(-c2ncc(NC[C@@H]3CCCN3)c(Oc3ccc(OC)cc3)n2)cn1 [Cpd 60] |  | 0.014 | 1.52 µM | 0.089 µM | 3.73 | 0.926 |  |  |
|  | COc1ccc(Oc2nc(-c3ccc4c(c3)CCO4)ncc2NC[C@@H]2CCCN2)cc1 [Cpd 63] |  | 0.037 |  |  |  |  | 0.633 | 0.693 |
|  | COc1ccc(Oc2nc(-c3ccc(OC)c(F)c3)ncc2NC[C@@H]2CCCN2)cc1 [Cpd 64] |  | 0.008 | 0.466 µM | 0.088 µM | 12 | 0.830 |  |  |
| 0.003 | COc1ccc(Oc2nc(-c3cn[nH]c3)ncc2NC[C@@H]2CCCN2)cc1 [Cpd 65] |  |  |  |  |  | 0.824 | 0.555 | 0.339 |
|  | COc1ccc(Oc2nc(-c3ccnc(SC)n3)ncc2NC[C@@H]2CCCN2)cc1 [Cpd 66, [4-(4-Methoxy-phenoxy)-2′-methylsulfanyl-[2,4]bipyrimidinyl-5-yl]-pyrrolidin-2-(S)-ylmethyl-amine] |  | 0.01 |  |  | 5.77 |  | 0.39 | 0.568 |
|  | COc1ccc(Oc2nc(-c3cnn(C)c3)ncc2NC[C@@H]2CCCN2)cc1 [Cpd 67] |  | 0.001 |  |  |  |  | 1.56 | 0.194 |
|  | COc1ccc(Oc2nc(-c3cc(F)cc(OC)c3)ncc2NC[C@@H]2CCCN2)cc1 [Cpd 70] |  | 0.047 |  |  |  |  | 2.25 |  |
| 0.002 | COc1ccc(Oc2nc(-c3ccc(N)nc3)ncc2NC[C@@H]2CCCN2)cc1 [Cpd 72] |  |  |  |  | 15.2 | 0.905 | 0.732 | 0.105 |
|  | COc1ccc(Oc2nc(-c3ccc(O)nc3)ncc2NC[C@@H]2CCCN2)cc1 [Cpd 74] |  | 0.026 |  |  | 2.37 |  | 1.06 | 0.856 |
|  | Oc1ccc(Oc2nc(-c3ccc(O)nc3)ncc2NCC2CCCN2)cc1 (stereo not shown) [Cpd 75] |  | 0.036 |  |  |  |  | 5.12 |  |
| 0.111 | COc1ccc(Oc2nc(-c3ccc4nccnc4c3)ncc2NC[C@@H]2CCCN2)cc1 [Cpd 76] |  |  |  |  |  |  | 0.333 |  |
|  | COc1ccc(Oc2nc(-c3ccc4nonc4c3)ncc2NC[C@@H]2CCCN2)cc1 [Cpd 78] |  | 0.075 |  |  |  |  | 1.88 |  |
|  | COc1ccc(Oc2nc(-c3cncnc3)ncc2NC[C@@H]2CC(F)(F)CN2)cc1 [Cpd 79] |  | 0.095 |  |  |  |  | > 10 |  |
|  | COc1ccc(Oc2nc(-c3cncnc3)ncc2NC[C@@H]2C[C@@H](F)CN2)cc1 [Cpd 80] |  | 0.002 |  |  |  |  | 0.106 | 0.113 |
|  | COc1ccc(Oc2nc(-c3cnc(N(C)C)nc3)ncc2NC[C@@H]2CCCN2)cc1 [Cpd 82] |  | 0.028 |  |  |  |  | 1.05 |  |
|  | COc1ccc(Oc2nc(-c3cnc(N4CCOCC4)nc3)ncc2NC[C@@H]2CCCN2)cc1 [Cpd 83] |  | 0.014 |  |  |  |  | 0.673 |  |
| 0.016 | COc1ccc(Oc2nc(-c3cnc(N4CCN(C)CC4)nc3)ncc2NC[C@@H]2CCCN2)cc1 [Cpd 84] |  |  |  |  |  |  | 0.338 |  |
|  | c1ncc(-c2ncc(NC[C@@H]3CCCN3)c(Oc3ccc4ncsc4c3)n2)cn1 [Cpd 85] |  | 0.002 |  |  |  |  | > 10 | > 10 |

| SMILES | Ki (delta opioid receptor [1]; [5]) [µM] | Ki (delta opioid receptor [1]; δ-binding (DPDPE ligand) Ki, [3H]DPDPE ligand) [µM] | Ki (delta opioid receptor [1]; [3]) [µM] | Ki (mu opioid receptor; μ-binding Ki) | EC50 (delta opioid receptor [2]; [4]) | inhibition at 10 µM (delta opioid receptor [2]) [%] | GTPγS δ-opioid receptor Rel Efficacy (delta opioid receptor [2]) | Ki (mu opioid receptor; read-out: μ-binding Ki) [µM] | EC50 (delta opioid receptor [2]; [6]) [µM] |
| --- | --- | --- | --- | --- | --- | --- | --- | --- | --- |
| COc1ccc(Oc2nc(-c3cccc4ccccc34)ncc2NC[C@@H]2CCCN2)cc1 [Cpd 5] | 0.157 |  |  |  |  | 18.1 | 0.803 | > 10 | 0.164 |
| COc1ccc(Oc2nc(-c3c(C)noc3C)ncc2NC[C@@H]2CCCN2)cc1 [Cpd 62] | 0.544 |  |  |  |  |  |  | 1.92 |  |
| COc1ccc(Oc2nc(-c3cnc4[nH]ccc4c3)ncc2NC[C@@H]2CCCN2)cc1 [Cpd 77] | 0.154 |  |  |  |  |  |  | 0.313 |  |
| COc1ccc(Oc2nc(-c3cnc(N)nc3)ncc2NC[C@@H]2CCCN2)cc1 [Cpd 81] | 0.355 |  |  |  |  |  |  | 0.569 |  |
